13 compounds from patent publication US7514438B2, “Melanin concentrating hormone receptor antagonist” (Amgen, Inc., priority 2003, dated 2009) can be followed below.

In assay [1] the target is T1, rat MCH1 receptor (Rattus norvegicus, UniProt P97639). Kind of assay: rMCH FLIPR calcium mobilization assay (CHOK1-Gqi cells). In kind it is cell-based. Further details: expressed in transfected cells; host or cells: CHOK1-Gqi. Particulars: CHOK1-Gqi cells, rat MCH1 receptor, read-out: Ki in the rMCH FLIPR assay. As to the method: Pharmacological analyses were conducted using either a HT-PS100 device (Axiom Biotechnologies, San Diego, Calif.), which provides high-resolution dose-response fluorometric measurements of [Ca^++]i mobilization, or using a FLIPR® device (Molecular Devices, Sunnyvale, Calif.).
T1 sequence (P97639 whole entry): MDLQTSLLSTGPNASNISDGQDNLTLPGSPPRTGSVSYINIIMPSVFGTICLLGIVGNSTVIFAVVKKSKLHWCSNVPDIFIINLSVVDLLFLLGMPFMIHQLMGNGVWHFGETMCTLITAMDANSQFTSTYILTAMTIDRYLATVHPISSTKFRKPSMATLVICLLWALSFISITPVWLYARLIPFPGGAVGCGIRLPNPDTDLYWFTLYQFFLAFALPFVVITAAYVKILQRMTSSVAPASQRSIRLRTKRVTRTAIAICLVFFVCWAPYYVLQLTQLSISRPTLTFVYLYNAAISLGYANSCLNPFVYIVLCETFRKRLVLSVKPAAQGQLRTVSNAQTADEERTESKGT
Materials: Pharmacological analysis was conducted using a FLIPR® device (Molecular Devices, Sunnyvale, Calif.). CHOK1-Gqi cells were stably transfected with the rat MCH1 receptor and maintained under G418 antibiotic pressure. FLIPR® assay buffer consisted of phenol red-free DMEM+2.5 mM probenecid. […]. Test compounds were prepared as 10 mM stocks in 100% DMSO and diluted to a top end working concentration of 10 μM in 96 well black, flat bottom, collagen-I coated plates (Becton Dickinson, Bedford, Mass.).
Methods: CHOK1-Gqi cells stably expressing MCH1R were maintained in Dulbeco's modified Eagle's medium (GIBCO/Life Technologies, Rockville, Md.) supplemented with 2 mM glutamine and 10% dialyzed fetal bovine serum (HyCLone, Logan, Utah) at 37° C., 5% CO2. Cells were harvested by 10′ treatment with Versene (GIBCO/Life Technologies) followed by trituration, washing twice with cold (4° C.) hybridoma medium (Serum/Protein free, with L-glutamine, sodium bicarbonate, MOPS buffer) (Sigma-Aldrich Corp, St. Louis, Mo.) and replated onto 96 well black, flat bottom, collagen-I coated plates to a density of 10,000 cells/well. The cells were then loaded with the fluorescent calcium indicator Fura-2 (Molecular Probes, Eugene, Oreg.) at 1.6 μM for 60′ at room temperature. The loaded cells were then washed twice with 90 μl/well of wash buffer (1×HBSS, 20 mM HEPES, 2.5 mM probenecid).
Receptor-stimulated intracellular calcium responses were detected using FLIPR® by monitoring increases in the Fura-2 fluorescence response.
Test compounds were screened for MCH1R activity in the FLIPR® for both agonist and antagonist action. Agonist mode challenges were conducted at a maximum gradient concentration of 1 μM. Antagonist activity was tested by 10 min pre-incubation of cells at a compound concentration of defined to be 300× the EC50 of MCH (typically 1 μM), with subsequent introduction of MCH at a concentration 5-fold of EC50 as determined in preliminary experiments. […].
Several fixed concentrations of antagonist compounds were prepared in 10-fold increments, and presented to the cells in a gradient of increasing MCH concentration. Values for compound pA2 were calculated by linear regression of MCH EC50s as a function of antagonist concentration.

The target of assay [2] is T1, rat MCH1 receptor. Description: HT-PS100 calcium mobilization functional assay. It is filed as cell-based. Further details: expressed in transfected cells. Particulars: HEK 293 cells stably transfected with rat MCH1 receptor; 100 nM or less list; read-out: Ki in the HT-PS100 assay. (Calcium flux is commonly read through the fluorescence of an indicator in the cells.)
For assay [3], the target named is T2, rat MCH 1 receptor (rMCH1R) (Rattus norvegicus, UniProt P97639).
T2 construct: expressed in transfected cells; host or cells: HEK 293 (membranes)
T2 sequence (P97639 whole entry): as above
Description: 125I-MCH ligand binding assay, rMCH. Conditions: HEK 293 membranes, 0.2 nM 125I native-MCH, read-out: IC50 in the rMCH binding assay. A digest of the protocol:
(§1)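 HEK293 membranes expressing rat or human MCH1R (100 µg tissue) were incubated for 90 min at 30 °C with 0.2 nM 125I-native-MCH and test compound in HEPES/MgCl2/BSA buffer with protease inhibitors, pH 7.4. Non-specific binding used 1 µM cold MCH. Filter-bound radioactivity gave IC50 by nonlinear regression.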

Assay [4] deals with T3, human MCH receptor (Homo sapiens, UniProt Q99705).
T3 construct: expressed in transfected cells
T3 sequence (Q99705 whole entry): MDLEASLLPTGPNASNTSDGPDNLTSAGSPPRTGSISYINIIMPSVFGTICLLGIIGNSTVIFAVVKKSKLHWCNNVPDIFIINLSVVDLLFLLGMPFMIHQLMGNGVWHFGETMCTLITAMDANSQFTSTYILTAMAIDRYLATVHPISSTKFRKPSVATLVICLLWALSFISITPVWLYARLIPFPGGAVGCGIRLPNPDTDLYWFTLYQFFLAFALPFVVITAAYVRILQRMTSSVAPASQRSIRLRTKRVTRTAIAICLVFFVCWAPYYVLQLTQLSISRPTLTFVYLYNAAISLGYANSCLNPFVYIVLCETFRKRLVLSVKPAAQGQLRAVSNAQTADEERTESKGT
Description: hMCH FLIPR calcium mobilization assay. It is filed as cell-based. Particulars: read-out: Ki in the hMCH FLIPR assay.

The target in assay [5] is T4, human MCH 1 receptor (hMCH1R) (Homo sapiens, UniProt Q99705).
T4 construct: expressed in transfected cells; host or cells: HEK 293 (membranes)
T4 sequence (Q99705 whole entry): as above
Kind of assay: 125I-MCH ligand binding assay, hMCH. Particulars: HEK 293 membranes, 0.2 nM 125I native-MCH, read-out: IC50 in the hMCH binding assay. In a few lines: as §1

SMILES strings stand for the structures. Like-named read-outs stand apart in the source and are kept apart here.

For `Cc1cccc(C)c1-n1nnnc1[C@H](c1ccccc1)N1CCN(C/C=C/c2ccccc2)CC1` (racemic) [Compound 4, 1-{[1-(2,6-dimethyiphenyl)-1H-tetrazol-5-yl]phenylmethyl}-4-(3-phenylallyl)piperazine], the Ki (in general, the dissociation constant of the complex between target and ligand, obtained from inhibition or displacement) in assay [1] (100 μM or less list) was no more than 100 µM; in assay [2] it was no more than 0.1 µM; in assay [4] (100 nM or less list) it was no more than 0.1 µM; in assay [4] (100 μM or less list) it was no more than 100 µM. For the same compound, the IC50 (usually the midpoint of a concentration-inhibition curve) in assay [3] (100 μM or less list) is no more than 100 µM; in assay [5] (100 nM or less list), no more than 0.1 µM; in assay [5] (100 μM or less list) it was no more than 100 µM.
Consider `Cc1cccc(C)c1-n1nnnc1[C@H](c1cccc(F)c1)N1CCN(C/C=C/c2ccccc2)CC1` (racemic) [Compound 48, 1-[[1-(2,6-dimethyiphenyl)-1H-tetrazol-5-yl]-(3-fluorophenyl)methyl]-4-(3-phenylallyl)piperazine], for which the Ki in assay [1] (100 μM or less list) is no more than 100 µM; in assay [2] it was no more than 0.1 µM; in assay [4] (100 nM or less list), no more than 0.1 µM; in assay [4] (100 μM or less list), no more than 100 µM. The IC50 in assay [3] (100 μM or less list) and in assay [5] (100 μM or less list) was no more than 100 µM in each case.
As for `Cc1cccc(C)c1-n1nnnc1[C@H](c1cccs1)N1CCN(C/C=C/c2ccccc2)CC1` (racemic) [Compound 53, 1-{[1-(2,6-dimethyiphenyl)-1H-tetrazol-5-yl]thiophen-2-ylmethyl}-4-(3-phenylallyl)piperazine], the Ki in assay [1] (100 μM or less list) is no more than 100 µM; in assay [2] it was no more than 0.1 µM; in assay [4] (100 nM or less list), no more than 0.1 µM; in assay [4] (100 μM or less list), no more than 100 µM. Further, the IC50 in assay [3] (100 μM or less list) and in assay [5] (100 μM or less list) was no more than 100 µM in each case.
In the case of `Cc1ccc([C@@H](c2nnnn2-c2c(C)cccc2C)N2CCN(C/C=C/c3ccccc3)CC2)cc1` (racemic) [Compound 55, 1-{[1-(2,6-dimethyiphenyl)-1H-tetrazol-5-yl]-p-tolylmethyl]-4-(3-phenylallyl)piperazine], the Ki in assay [1] (100 μM or less list) was no more than 100 µM; in assay [2], no more than 0.1 µM; in assay [4] (100 nM or less list) it was no more than 0.1 µM; in assay [4] (100 μM or less list) it was no more than 100 µM. Further, the values for the 50% inhibitory concentration (IC50) in assay [3] (100 μM or less list), in assay [5] (100 nM or less list) and in assay [5] (100 μM or less list) were no more than 100 µM, no more than 0.1 µM and no more than 100 µM, respectively.
As to `Cc1cccc(C)c1-n1nnnc1[C@H](c1cccc(C(F)(F)F)c1)N1CCN(C/C=C/c2ccccc2)CC1` (racemic) [Compound 56, 1-[[1-(2,6-dimethyiphenyl)-1H-tetrazol-5-yl]-(3-trifluoromethyiphenyl)methyl]-4-(3-phenylallyl)piperazine], the Ki is no more than 0.1 µM in assay [1] (100 nM or less list); no more than 100 µM in assay [1] (100 μM or less list); no more than 0.1 µM in assay [2]; no more than 0.1 µM in assay [4] (100 nM or less list); no more than 100 µM in assay [4] (100 μM or less list). The IC50 in assay [3] (100 nM or less list) was no more than 0.1 µM; in assay [3] (100 μM or less list), no more than 100 µM; in assay [5] (100 nM or less list), no more than 0.1 µM; in assay [5] (100 μM or less list), no more than 100 µM.
In the case of `Cc1cccc(C)c1-n1nnnc1[C@H](c1ccc(Cl)cc1)N1CCN(C/C=C/c2ccccc2)CC1` (racemic) [Compound 57, 1-{(4-chlorophenyl)-[1-(2,6-dimethyiphenyl)-1H-tetrazol-5-yl]methyl}-4-(3-phenylallyl)piperazine], the results for the Ki in assay [1] (100 μM or less list), in assay [2] and in assay [4] (100 μM or less list) were no more than 100 µM, no more than 0.1 µM and no more than 100 µM, respectively. Besides, the IC50 in assay [3] (100 μM or less list) and in assay [5] (100 μM or less list) was no more than 100 µM in each case.
`Cc1cccc(C)c1-n1nnnc1[C@H](c1ccc(Cl)c(Cl)c1)N1CCN(C/C=C/c2ccccc2)CC1` (racemic) [Compound 60, 1-{(3,4-dichlorophenyl)-[1-(2,6-dimethylphenyl)-1H-tetrazol-5-yl]methyl}-4-(3-phenylallyl)piperazine]: the Ki in assay [1] (100 μM or less list) was no more than 100 µM; in assay [2], no more than 0.1 µM; in assay [4] (100 μM or less list) it was no more than 100 µM. In addition, the IC50 in assay [3] (100 μM or less list) and in assay [5] (100 μM or less list) was no more than 100 µM in each case.
As for `Cc1cccc([C@@H](c2nnnn2-c2c(C)cccc2C)N2CCN(C/C=C/c3ccccc3)CC2)c1` (racemic) [Compound 61, 1-{[1-(2,6-dimethylphenyl)-1H-tetrazol-5-yl]-m-tolylmethyl}-4-(3-phenylallyl) piperazine], the Ki in assay [1] (100 μM or less list) is no more than 100 µM; in assay [2] it was no more than 0.1 µM; in assay [4] (100 μM or less list), no more than 100 µM. Also, the half-inhibitory concentration (IC50) in assay [3] (100 μM or less list) and in assay [5] (100 μM or less list) was no more than 100 µM in each case.
Consider `Cc1cccc(C)c1-n1nnnc1[C@H](c1ccc2ccccc2c1)N1CCN(C/C=C/c2ccccc2)CC1` (racemic) [Compound 62, 1-{[1-(2,6-dimethylphenyl)-1H-tetrazol-5-yl]naphthalen-2-ylmethyl}-4-(3-phenylallyl)piperazine], for which the Ki in assay [1] (100 μM or less list) is no more than 100 µM; in assay [2], no more than 0.1 µM; in assay [4] (100 μM or less list), no more than 100 µM. Further, the IC50 in assay [3] (100 μM or less list) is no more than 100 µM; in assay [5] (100 nM or less list) it was no more than 0.1 µM; in assay [5] (100 μM or less list), no more than 100 µM.
Regarding `Cc1cccc(C)c1-n1nnnc1[C@H](c1ccc(-c2ccccc2)cc1)N1CCN(C/C=C/c2ccccc2)CC1` (racemic) [Compound 64, 1-{biphenyl-4-yl-[1-(2,6-dimethylphenyl)-1H-tetrazol-5-yl]methyl}-4-(3-phenylallyl)piperazine], the figures for the Ki in assay [1] (100 μM or less list) and in assay [2] were no more than 100 µM and no more than 0.1 µM, respectively. Besides, the 50% inhibitory concentration (IC50) is no more than 100 µM in assay [3] (100 μM or less list), no more than 0.1 µM in assay [5] (100 nM or less list) and no more than 100 µM in assay [5] (100 μM or less list).
Regarding `Cc1cccc(C)c1-n1nnnc1[C@H](c1ccc(OCc2ccccc2)cc1)N1CCN(C/C=C/c2ccccc2)CC1` (racemic) [Compound 70, 1-{(4-benzyloxyphenyl)-[1-(2,6-dimethylphenyl)-1H-tetrazol-5-yl]methyl}-4-(3-phenylallyl)piperazine], the Ki is no more than 100 µM in assay [1] (100 μM or less list), no more than 0.1 µM in assay [2], no more than 0.1 µM in assay [4] (100 nM or less list) and no more than 100 µM in assay [4] (100 μM or less list). Moreover, the IC50 in assay [3] (100 nM or less list) was no more than 0.1 µM; in assay [3] (100 μM or less list), no more than 100 µM; in assay [5] (100 nM or less list), no more than 0.1 µM; in assay [5] (100 μM or less list), no more than 100 µM.
Turning to `Cc1cccc(C)c1-n1nnnc1[C@H](c1ccc(Oc2ccccc2)cc1)N1CCN(C/C=C/c2ccccc2)CC1` (racemic) [Compound 76, 1-[[1-(2,6-dimethylphenyl)-1H-tetrazol-5-yl]-(4-phenoxyphenyl)methyl]-4-(3-phenylallyl)piperazine], the Ki is no more than 100 µM in assay [1] (100 μM or less list) and no more than 0.1 µM in assay [2]. The results for the IC50 in assay [3] (100 μM or less list), in assay [5] (100 nM or less list) and in assay [5] (100 μM or less list) were no more than 100 µM, no more than 0.1 µM and no more than 100 µM, respectively.
As for `COc1cccc([C@@H](c2nnnn2-c2c(C)cccc2C)N2CCN(C/C=C/c3ccccc3)CC2)c1` (racemic) [Compound 77, 1-[[1-(2,6-dimethylphenyl)-1H-tetrazol-5-yl]-(3-methoxyphenyl)methyl]-4-(3-phenylallyl)piperazine], the inhibition constant Ki in assay [1] (100 μM or less list) is no more than 100 µM; in assay [2], no more than 0.1 µM; in assay [4] (100 μM or less list) it was no more than 100 µM. For the same compound, the IC50 was no more than 100 µM in assay [3] (100 μM or less list), no more than 0.1 µM in assay [5] (100 nM or less list) and no more than 100 µM in assay [5] (100 μM or less list).
